Test system: diabetic foot ulcer
Assay: anecdotal report: insulin-dependent diabetic patient with diabetic foot ulcer treated with sildenafil
Format: in vivo, human
Settings: one patient
Description: The efficacy of the cGMP PDE5 inhibitors in treating neuropathy in human patients is illustrated by the following anecdotal report. The patient was an insulin-dependent diabetic who had been suffering from erectile dysfunction and who subsequently developed a diabetic foot ulcer. During treatment of their erectile dysfunction with sildenafil it was noted that their foot ulcer, which they had had for approximately two years, was healing. The patient had been through various courses of treatment with minimal results. They had seen vascular surgeons, podiatrists and had visited wound care clinics. Ultimately, they were hopitalised for approximately one month on IV antibiotics etc, and the threat was very real that the patient was going to require a below-the-knee amputation. At times the ulcer would appear to be healing only to re-occur, returning to its pre-treatment size and depth. […] The patient was instructed to continue taking 50 mg of Sildenafil once a day.

CCCc1nn(C)c2c(=O)[nH]c(-c3cc(S(=O)(=O)N4CCN(C)CC4)ccc3OCC)nc12 [Sildenafil, 5-[2-ethoxy-5-(4-methylpiperazin-1-ylsulphonyl)-phenyl]-1,6-dihydro-1-methyl-3-propylpyrazolo [4,3-d]pyrimidine-7-one]
outcome of the diabetic foot ulcer (ulcer present approximately two years, 50 mg of Sildenafil once a day): complete resolution of the diabetic foot ulcer within one month
ulcer size after start of treatment (Sildenafil treatment begun for erectile dysfunction): decreasing in size
re-occurrence of ulcer on continued treatment (same treatment (50 mg once a day) continued for the past two years): without re-occurrence
